Our source for the Ki values is patent US9328138B2 (priority 2011, dated 2016).

Experiment [1] addresses T1, HCV genotype 1b (BK) NS3 modified enzyme with a R155K mutation (Hepatitis C virus genotype 1b, UniProt P26663, R1181K).
T1 construct: HCV genotype 1b (BK) NS3 modified enzyme
Kind of experiment: HCV NS3 protease time-resolved fluorescence (TRF) assay, genotype 1b R155K. The format is biochemical. The settings on record: Ki 1b R155K, genotype 1b (BK) NS3 R155K; single value. The method, boiled down: (§1)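 Time-resolved fluorescence, ex 340/em 615 nm, 400 μs delay; IC50 by four-parameter fit. Enzyme preincubated with compound 10 min, then TRF substrate 25 nM final added and reaction run 6 h at RT. Buffer HEPES pH 7.5 with NaCl, glycerol, Triton X-100, DTT, PEG 8000.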

The target in experiment [2] is HCV NS3 protease genotype 3a (3A-1) (Hepatitis C virus genotype 3a, UniProt Q81258). Kind of experiment: HCV NS3 protease time-resolved fluorescence (TRF) assay, genotype 3a. The format is biochemical. The settings on record: Ki 3a. The method, boiled down:
as §1

SMILES strings stand for the structures. pKi: −log10 of the molar value.

With `C=C[C@@H]1C[C@]1(NC(=O)[C@@H]1C[C@@H]2CN1C(=O)[C@H](C(C)(C)C)NC(=O)O[C@@H]1C[C@H]1CCCCCc1c(nc3c(F)cccc3c1OCCN1CCCCC1)O2)C(=O)NS(=O)(=O)C1(C)CC1` [Example 213, (1aR,5S,8S,10R,22aR)-5-tent-butyl-N-[(1R,2S)-2-ethenyl-1-{[(1-methylcyclopropyl)sulfonyl]carbamoyl}cyclopropyl]-13-fluoro-3,6-dioxo-17-[2-(piperidin-1-yl)ethoxy]-1,1a,3,4,5,6,9,10,18,19,20,21,22,22a-tetradecahydro-8H-7,10-methanocyclopropa[18,19][1,10,3,6] dioxadiazacyclononadecino[11,12-b]quinoline-8-carboxamide], the negative logarithm of the Ki (pKi) in experiment [1] was 9.44; in experiment [2], 8.42.
Consider `C=C[C@@H]1C[C@]1(NC(=O)[C@@H]1C[C@@H]2CN1C(=O)[C@H](C(C)(C)C)NC(=O)O[C@@H]1C[C@H]1CCCCCc1c(nc3c(F)cccc3c1OCCn1ccnc1)O2)C(=O)NS(=O)(=O)C1(C)CC1` [Example 214, (1aR,5S,8S,10R,22aR)-5-tert-butyl-N-[(1R,2S)-2-ethenyl-1-{[(1-methylcyclopropyl)sulfonyl]carbamoyl}cyclopropyl]-13-fluoro-17-[2-(1H-imidazol-1-yl)ethoxy]-3,6-dioxo-1,1a,3,4,5,6,9,10,18,19,20,21,22,22a-tetradecahydro-8H-7,10-methanocyclopropa[18,19][1,10,3,6] dioxadiazacyclononadecino[11,12-b]quinoline-8-carboxamide], for which the results for the pKi in experiment [1] and in experiment [2] were 10.68 and 8.92, respectively.
On the same counts, the results for `C=C[C@@H]1C[C@]1(NC(=O)[C@@H]1C[C@@H]2CN1C(=O)[C@H](C1CCCCC1)NC(=O)O[C@@H]1C[C@H]1CCCCCc1c(nc3c(OC)cccc3c1OCC1CN(C(=O)OC(C)(C)C)C1)O2)C(=O)NS(=O)(=O)C1(C)CC1` [Example 215, tent-butyl 3-[({(1aS,5R,8S,10R,22aR)-5-cyclohexyl-8-[(2-ethenyl-1-{[(1-methylcyclopropyl)sulfonyl]carbamoyl}cyclopropyl)carbamoyl]-13-methoxy-3,6-dioxo-1,1a,3,4,5,6,9,10,18,19,20,21,22,22a-tetradecahydro-8H-7,10-methanocyclopropa[18,19][1,10,3,6]dioxadiazacyclononadecino[11,12-b]quinolin-1'7-yl}oxy)methyl]azetidine-1-carboxylate] are 8.77 and 7.26.
The matching figures for `C=C[C@@H]1C[C@]1(NC(=O)[C@@H]1C[C@@H]2CN1C(=O)[C@H](C1CCCCC1)NC(=O)O[C@@H]1C[C@H]1CCCCCc1c(nc3c(OC)cccc3c1OCCN1CCCCC1)O2)C(=O)NS(=O)(=O)C1(C)CC1` [Example 216, (1aR,5S,8S,10R,22aR)-5-cyclohexyl-N-[(1R,2S)-2-ethenyl-1-{[(1-methylcyclopropyl)sulfonyl]carbamoyl}cyclopropyl]-13-methoxy-3,6-dioxo-17-[2-(piperidin-1-yl)ethoxy]-1,1a,3,4,5,6,9,10,18,19,20,21,22,22a-tetradecahydro-8H-7,10-methanocyclopropa[18,19][1,10,3,6] dioxadiazacyclononadecino[11,12-b]quinoline-8-carboxamide]: 9.62 and 8.19.
`C=C[C@@H]1C[C@]1(NC(=O)[C@@H]1C[C@@H]2CN1C(=O)[C@H](C(C)(C)C)NC(=O)O[C@@H]1C[C@H]1CCCCCc1c(nc3ccccc3c1OCCc1ccccn1)O2)C(=O)NS(=O)(=O)C1(C)CC1` [Example 217, (1aR,5S,8S,10R,22aR)-5-tert-butyl-N-[(1R,2S)-2-ethenyl-1-{[(1-methylcyclopropyl)sulfonyl]carbamoyl}cyclopropyl]-3,6-dioxo-17-[2-(pyridin-2-yl)ethoxy]-1,1a,3,4,5,6,9,10,18,19,20,21,22,22a-tetradecahydro-8H-7,10-methanocyclopropa[18,19][1,10,3,6] dioxadiazacyclononadecino[11,12-b]quinoline-8-carboxamide]: the negative logarithm of the Ki (pKi) was 9.57 in experiment [1] and 8.15 in experiment [2].
Turning to `C=C[C@@H]1C[C@]1(NC(=O)[C@@H]1C[C@@H]2CN1C(=O)[C@H](C(C)(C)C)NC(=O)O[C@@H]1C[C@H]1CCCCCc1c(nc3ccccc3c1OCCc1cccnc1)O2)C(=O)NS(=O)(=O)C1(C)CC1` [Example 218, (1aR,5S,8S,10R,22aR)-5-tert-butyl-N-[(1R,2S)-2-ethenyl-1-{[(1-methylcyclopropyl)sulfonyl]carbamoyl}cyclopropyl]-3,6-dioxo-17-[2-(pyridin-3-yl)ethoxy]-1,1a,3,4,5,6,9,10,18,19,20,21,22,22a-tetradecahydro-8H-7,10-methanocyclopropa[18,19][1,10,3,6] dioxadiazacyclononadecino[11,12-b]quinoline-8-carboxamide], the pKi in experiment [1] is 10.46; in experiment [2], 8.59.
As for `C=C[C@@H]1C[C@]1(NC(=O)[C@@H]1C[C@@H]2CN1C(=O)[C@H](C(C)(C)C)NC(=O)O[C@@H]1C[C@H]1CCCCCc1c(nc3ccccc3c1OCCc1ccncc1)O2)C(=O)NS(=O)(=O)C1(C)CC1` [Example 219, (1aR,5S,8S,10R,22aR)-5-tert-butyl-N-[(1R,2S)-2-ethenyl-1-{[(1-methylcyclopropyl)sulfonyl]carbamoyl}cyclopropyl]-3,6-dioxo-17-[2-(pyridine-4-yl)ethoxy]-1,1a,3,4,5,6,9,10,18,19,20,21,22,22a-tetradecahydro-8H-7,10-methanocyclopropa[18,19][1,10,3,6] dioxadiazacyclononadecino[11,12-b]quinoline-8-carboxamide], the pKi in experiment [1] was 9.92; in experiment [2], 8.72.
Take `C=C[C@@H]1C[C@]1(NC(=O)[C@@H]1C[C@@H]2CN1C(=O)[C@H](C(C)(C)C)NC(=O)O[C@@H]1C[C@H]1CCCCCc1c(nc3ccccc3c1OC1CCN(C3CC3)CC1)O2)C(=O)NS(=O)(=O)C1(C)CC1` [Example 220, (1aR,5S,8S,10R,22aR)-5-tert-butyl-17-[(1-cyclopropylpiperidin-4-yl)oxy]-N-[(1R,2S)-2-ethenyl-1-{[(1-methylcyclopropyl)sulfonyl]carbamoyl}cyclopropyl]-3,6-dioxo-1,1a,3,4,5,6,9,10,18,19,20,21,22,22a-tetradecahydro-8H-7,10-methanocyclopropa[18,19][1,10,3,6] dioxadiazacyclononadecino[11,12-b]quinoline-8-carboxamide]: the pKi is 9.54 in experiment [1] and 8.41 in experiment [2].
`C=C[C@@H]1C[C@]1(NC(=O)[C@@H]1C[C@@H]2CN1C(=O)[C@H](C(C)(C)C)NC(=O)O[C@@H]1C[C@H]1CCCCCc1c(nc3ccccc3c1OC[C@H]1CNCCO1)O2)C(=O)NS(=O)(=O)C1(C)CC1` [Example 221, (1aR,5S,8S,10R,22aR)-5-tert-butyl-N-[(1R,2S)-2-ethenyl-1-{[(1-methylcyclopropyl)sulfonyl]carbamoyl}cyclopropyl]-17-[(2R)-morpholin-2-ylmethoxy]-3,6-dioxo-1,1a,3,4,5,6,9,10,18,19,20,21,22,22a-tetradecahydro-8H-7,10-methanocyclopropa[18,19][1,10,3,6]dioxadiazacyclononadecino[11,12-b]quinoline-8-carboxamide]: the pKi in experiment [1] is 10.30; in experiment [2], 8.85.
On to `C=C[C@@H]1C[C@]1(NC(=O)[C@@H]1C[C@@H]2CN1C(=O)[C@H](C(C)(C)C)NC(=O)O[C@@H]1C[C@H]1CCCCCc1c(nc3ccccc3c1OC1CNC1)O2)C(=O)NS(=O)(=O)C1(C)CC1` [Example 222, (1aR,5S,8S,10R,22aR)-17-(azetidin-3-yloxy)-5-tert-butyl-N-[(1R,2S)-2-ethenyl-1-{[(1-methylcyclopropyl)sulfonyl]carbamoyl}cyclopropyl]-3,6-dioxo-1,1a,3,4,5,6,9,10,18,19,20,21,22,22a-tetradecahydro-8H-7,10-methanocyclopropa[18,19][1,10,3,6]dioxadiazacyclononadecino[11,12-b]quinoline-8-carboxamide], for which the figures for the pKi in experiment [1] and in experiment [2] were 10.35 and 9.36, respectively.
For the compound `C=C[C@@H]1C[C@]1(NC(=O)[C@@H]1C[C@@H]2CN1C(=O)[C@H](C(C)(C)C)NC(=O)O[C@@H]1C[C@H]1CCCCCc1c(nc3ccccc3c1OC1CN(CC3CC3)C1)O2)C(=O)NS(=O)(=O)C1(C)CC1` [Example 223, (1aR,5S,8S,10R,22aR)-5-tert-butyl-17-{[1-(cyclopropylmethyl)azetidin-3-yl]oxy}-N-[(1R,2S)-2-ethenyl-1-{[(1-methylcyclopropyl)sulfonyl]carbamoyl}cyclopropyl]-3,6-dioxo-1,1a,3,4,5,6,9,10,18,19,20,21,22,22a-tetradecahydro-8H-7,10-methanocyclopropa[18,19][1,10,3,6]dioxadiazacyclononadecino[11,12-b]quinoline-8-carboxamide], the pKi in experiment [1] is 10.26; in experiment [2] it was 8.92.
On to `C=C[C@@H]1C[C@]1(NC(=O)[C@@H]1C[C@@H]2CN1C(=O)[C@H](C(C)(C)C)NC(=O)O[C@@H]1C[C@H]1CCCCCc1c(nc3ccccc3c1OCC1CN(C)C1)O2)C(=O)NS(=O)(=O)C1(C)CC1` [Example 224, (1aR,5S,8S,10R,22aR)-5-tert-butyl-N-[(1R,2S)-2-ethenyl-1-{[(1-methylcyclopropyl)sulfonyl]carbamoyl}cyclopropyl]-17-[(1-methylazetidin-3-yl)methoxy]-3,6-dioxo-1,1a,3,4,5,6,9,10,18,19,20,21,22,22a-tetradecahydro-8H-7,10-methanocyclopropa[18,19][1,10,3,6]dioxadiazacyclononadecino[11,12-b]quinoline-8-carboxamide], for which the negative logarithm of the Ki (pKi) in experiment [1] was 10.21; in experiment [2], 9.17.

For orientation: pKi means the negative decadic logarithm of the Ki, by convention in mol/L. The low end stands for a high Ki, the high end for a low Ki.
